Data taken from ChEMBL document CHEMBL1201862, “PubChem BioAssay data set” (2004).
The source made the active and inactive calls.

How the values were obtained:
[1] = P. falciparum Dd2 growth inhibitors, dose response, SYBR Green, cherry-picked samples (AID 1159567); type: functional, cell-based
[2] = target: T1, Replicative DNA helicase DnaB (Mycobacterium tuberculosis, UniProt P9WMR3); assay: DnaB intein splicing inhibitors, dose response, biochemical, cell-free fluorescence (AID 449749); type: functional
T1 sequence (P9WMR3 whole entry): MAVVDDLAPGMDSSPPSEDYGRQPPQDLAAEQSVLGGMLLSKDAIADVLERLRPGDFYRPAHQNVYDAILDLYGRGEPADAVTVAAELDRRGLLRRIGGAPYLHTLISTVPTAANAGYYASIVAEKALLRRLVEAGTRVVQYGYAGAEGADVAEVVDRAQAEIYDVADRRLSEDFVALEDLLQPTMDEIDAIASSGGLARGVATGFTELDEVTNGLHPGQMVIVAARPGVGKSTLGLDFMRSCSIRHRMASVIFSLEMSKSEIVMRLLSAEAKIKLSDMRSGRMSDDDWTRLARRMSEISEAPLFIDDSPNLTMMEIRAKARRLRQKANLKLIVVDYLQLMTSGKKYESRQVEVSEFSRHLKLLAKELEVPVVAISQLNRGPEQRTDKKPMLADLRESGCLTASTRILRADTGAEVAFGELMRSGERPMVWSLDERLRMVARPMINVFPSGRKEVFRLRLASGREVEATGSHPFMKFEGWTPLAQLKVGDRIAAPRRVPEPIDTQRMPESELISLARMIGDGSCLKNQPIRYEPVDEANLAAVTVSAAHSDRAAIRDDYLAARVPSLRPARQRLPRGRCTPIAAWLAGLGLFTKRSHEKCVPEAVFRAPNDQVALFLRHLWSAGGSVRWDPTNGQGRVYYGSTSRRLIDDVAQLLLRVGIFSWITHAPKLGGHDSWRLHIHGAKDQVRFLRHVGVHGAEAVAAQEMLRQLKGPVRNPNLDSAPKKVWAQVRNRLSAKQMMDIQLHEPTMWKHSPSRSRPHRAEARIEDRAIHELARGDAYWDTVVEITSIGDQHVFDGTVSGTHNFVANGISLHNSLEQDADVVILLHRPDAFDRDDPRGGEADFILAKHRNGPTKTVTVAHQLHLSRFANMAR

Protein RecA = target: T2, Protein RecA (Mycobacterium tuberculosis, UniProt P9WHJ3); assay: Fluorescence Cell-Free Homogeneous Dose Retest to Identify Inhibitors of RecA-Intein Splicing Activity. [Related pubchem assays (depositor defined):AID2097, AID2223, AID489010, AID492950]; type: functional
T2 sequence (P9WHJ3 whole entry): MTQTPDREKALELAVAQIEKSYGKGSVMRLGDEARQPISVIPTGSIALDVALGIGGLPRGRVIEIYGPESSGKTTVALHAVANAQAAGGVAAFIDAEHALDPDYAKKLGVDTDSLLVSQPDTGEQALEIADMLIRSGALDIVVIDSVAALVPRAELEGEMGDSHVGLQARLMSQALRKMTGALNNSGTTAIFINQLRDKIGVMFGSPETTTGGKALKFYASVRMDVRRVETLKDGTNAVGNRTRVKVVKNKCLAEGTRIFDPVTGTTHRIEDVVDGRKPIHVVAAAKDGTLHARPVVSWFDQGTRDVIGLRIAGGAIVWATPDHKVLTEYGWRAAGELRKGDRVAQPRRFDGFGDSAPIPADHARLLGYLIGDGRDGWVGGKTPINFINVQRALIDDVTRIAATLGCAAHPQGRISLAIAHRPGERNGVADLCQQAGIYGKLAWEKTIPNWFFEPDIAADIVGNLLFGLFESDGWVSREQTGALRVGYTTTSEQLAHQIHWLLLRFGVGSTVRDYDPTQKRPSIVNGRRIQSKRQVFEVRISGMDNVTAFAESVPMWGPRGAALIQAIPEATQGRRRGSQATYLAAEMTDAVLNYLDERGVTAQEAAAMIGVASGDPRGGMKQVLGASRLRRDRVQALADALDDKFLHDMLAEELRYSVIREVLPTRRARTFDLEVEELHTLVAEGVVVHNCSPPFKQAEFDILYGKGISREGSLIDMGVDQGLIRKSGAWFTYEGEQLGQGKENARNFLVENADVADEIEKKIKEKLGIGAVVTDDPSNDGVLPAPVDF

Leucine aminopeptidase = target: T3, Leucine aminopeptidase (Plasmodium falciparum 3D7, UniProt Q8IL11); assay: P. falciparum M17LAP inhibitors, primary screen, biochemical, fluorogenic H-Leu-NHMec substrate, 1536-well (AID 1619); type: functional
T3 sequence (Q8IL11 whole entry): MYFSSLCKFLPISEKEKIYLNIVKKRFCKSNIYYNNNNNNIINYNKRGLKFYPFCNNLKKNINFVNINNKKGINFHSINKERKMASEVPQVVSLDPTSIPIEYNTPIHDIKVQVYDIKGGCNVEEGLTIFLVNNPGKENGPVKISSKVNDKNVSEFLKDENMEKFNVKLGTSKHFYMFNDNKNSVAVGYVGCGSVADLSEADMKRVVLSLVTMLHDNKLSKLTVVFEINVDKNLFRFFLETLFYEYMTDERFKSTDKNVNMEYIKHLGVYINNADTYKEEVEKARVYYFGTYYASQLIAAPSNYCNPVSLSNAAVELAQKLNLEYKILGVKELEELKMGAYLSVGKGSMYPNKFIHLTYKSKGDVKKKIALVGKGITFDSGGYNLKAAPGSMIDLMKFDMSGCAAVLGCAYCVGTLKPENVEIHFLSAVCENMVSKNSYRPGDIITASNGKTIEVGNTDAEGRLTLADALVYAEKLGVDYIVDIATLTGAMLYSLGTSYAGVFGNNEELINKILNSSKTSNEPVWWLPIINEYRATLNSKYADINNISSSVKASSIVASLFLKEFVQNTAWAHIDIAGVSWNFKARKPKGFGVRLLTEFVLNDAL

Protein skinhead-1 = target: T4, Protein skinhead-1 (Caenorhabditis elegans, UniProt P34707); type: functional
T4 sequence (P34707 whole entry): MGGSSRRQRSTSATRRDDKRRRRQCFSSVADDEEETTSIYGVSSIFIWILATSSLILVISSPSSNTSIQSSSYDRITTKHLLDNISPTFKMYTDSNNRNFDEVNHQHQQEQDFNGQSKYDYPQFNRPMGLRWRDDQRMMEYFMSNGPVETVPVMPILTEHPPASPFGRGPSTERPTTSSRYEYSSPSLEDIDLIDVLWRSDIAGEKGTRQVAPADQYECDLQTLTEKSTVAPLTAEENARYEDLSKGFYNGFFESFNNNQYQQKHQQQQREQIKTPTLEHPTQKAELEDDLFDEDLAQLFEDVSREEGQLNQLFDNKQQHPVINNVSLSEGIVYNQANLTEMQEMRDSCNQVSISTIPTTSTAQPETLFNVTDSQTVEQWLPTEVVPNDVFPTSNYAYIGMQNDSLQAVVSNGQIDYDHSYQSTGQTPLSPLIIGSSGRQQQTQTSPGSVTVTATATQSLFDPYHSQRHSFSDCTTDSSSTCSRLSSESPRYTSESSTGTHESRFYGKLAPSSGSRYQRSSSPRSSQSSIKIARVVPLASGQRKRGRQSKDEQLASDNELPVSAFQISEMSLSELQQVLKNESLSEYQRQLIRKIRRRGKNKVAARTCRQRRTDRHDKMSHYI

[3] = inhibitors of HIV Env-driven cell fusion, dose response, cherry-pick (AID 652057); type: functional, cell-based
[4] = ZM109 Env clade C HIV-1 fusion inhibitors, dose response, HeLa effector, CEM target cells, luciferase, cherry-pick (AID 652058); type: functional, cell-based
[5] = inhibitors of clade B AD8 Env fusion, dose response, cell-based, cherry-pick (AID 652062); type: functional;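 also: luciferase signal from cell-cell fusion driven by HIV-1 clade B AD8 Env; potency is for inhibitors of fusion seen as a drop in luminescence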
[6] = cytotoxicity toward DRD oncogenic fibroblasts, dose response, cell-based, non-viral oncogenic, luminescence (AID 1934); type: functional; conditions: Homo sapiens
[7] = microbe, parasite or virus in culture; type: functional; conditions: Mycobacterium tuberculosis
BJ [8] = assay: cytotoxicity toward BJ-TERT-LT-ST fibroblasts, dose response, cell-based, RAS-independent, luminescence (AID 1935); type: functional; conditions: Homo sapiens;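 also: BJ fibroblasts immortalized with TERT plus LT and ST oncogenes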
BJ [9] = assay: cytotoxicity toward BJ-TERT fibroblasts, dose response, cell-based, RAS-independent, luminescence (AID 1933); type: functional; conditions: Homo sapiens
BJ [10] = assay: cells; type: functional, cell-based; conditions: Homo sapiens
[11] = target: T5, Ubiquitin-conjugating enzyme E2 N (Homo sapiens, UniProt P61088); type: functional;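 also: Dose-response confirmation in a TR-FRET assay detecting UBC13-driven polyubiquitin chain formation, inhibition measured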
T5 sequence (P61088 whole entry): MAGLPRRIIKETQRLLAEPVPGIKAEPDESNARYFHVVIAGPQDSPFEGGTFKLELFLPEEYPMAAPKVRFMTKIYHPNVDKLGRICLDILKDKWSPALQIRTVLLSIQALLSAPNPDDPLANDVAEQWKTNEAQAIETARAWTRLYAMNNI

[12] = target: FAD-linked sulfhydryl oxidase ALR (Homo sapiens, UniProt P55789); assay: inhibitors of human ALR sulfhydryl oxidase, dose response, biochemical, H2O2 detection, luminescence, cherry-pick (AID 493248)
FAD-linked sulfhydryl oxidase ALR, sequence (P55789 whole entry): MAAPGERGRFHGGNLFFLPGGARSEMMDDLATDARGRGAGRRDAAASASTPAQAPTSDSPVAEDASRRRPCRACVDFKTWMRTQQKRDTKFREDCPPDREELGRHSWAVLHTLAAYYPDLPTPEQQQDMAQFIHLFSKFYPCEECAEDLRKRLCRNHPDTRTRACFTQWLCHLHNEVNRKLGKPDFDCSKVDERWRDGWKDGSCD

[13] = Luminescence Cell-Based Dose Response HTS to Identify Activators of Luciferase Translation or Activity in H4 […] Cells. [Related pubchem assays: 1829 (Project Summary), 1814 (Primary HTS)]; type: functional
H4 = assay: Luminescence Cell-Based Dose Response HTS to Identify Activators of 5'UTR Stem-Loop Driven Prion Protein mRNA Translation in H4 Neuroglioblastoma Cells. [Related pubchem assays: 1829 (Project Summary), 1814 (Primary HTS)]; type: functional; conditions: Homo sapiens
[14] = Luminescence Cell-Based Dose Confirmation HTS to Identify Activators of 5'UTR Stem-Loop Driven Alpha-Synuclein mRNA Translation in H4 Neuroglioblastoma Cells. [Related pubchem assays: 1829 (Project Summary), 1814 (Primary HTS)]; type: functional
[15] = Luminescence Cell-Based Dose Retest to Confirm Inhibitors of Cancer Stem Cells. [Related pubchem assays (depositor defined):AID2717, AID2721]; type: functional; conditions: Homo sapiens

COc1cccc(S(=O)(=O)N(C)C[C@@H]2Oc3ncc(C#Cc4ccc(C(F)(F)F)cc4)cc3C(=O)N([C@H](C)CO)C[C@@H]2C)c1
AC50 [1]: 4.11 µM (active)

N#CC1=C(N)Oc2[nH]nc(-c3ccc(F)cc3)c2C1c1cccnc1 (configuration not stated)
AC50 [2]: 7.8 µM (active)
EC50 (Protein RecA): 1.63 µM (active)
IC50 (Leucine aminopeptidase): 61.2 µM (active)

Cc1ccccc1-n1c(SCC(=O)O)nc2sc3c(c2c1=O)CCCC3
IC50 (Protein skinhead-1): > 100 µM (inactive)

CN(C(=O)c1ccco1)c1nc(-c2ccccc2)cs1
IC50 (Protein skinhead-1): 100 µM (inactive)

CCC(=O)N1C[C@H](C)[C@H](OC)CN(C)C(=O)c2cc(NC(=O)Nc3cccc(F)c3)ccc2OC[C@@H]1C
AC50 [1]: 9.89 µM (active)

O=C(C[C@@H]1CC[C@@H]2[C@H](COC[C@@H](O)CN2C(=O)c2ccccc2F)O1)NCc1ccc(-c2ccccc2)cc1
AC50 [1]: 6.33 µM (active)

C[C@H]1CN([C@@H](C)CO)C(=O)c2ccccc2-c2ccccc2CO[C@@H]1CN(C)C(=O)CCC(F)(F)F
AC50 [3]: 1.1 µM (active)
AC50 [4]: 1.48 µM (active)
AC50 [5]: 2.55 µM (active)

O=C(C[C@H]1C[C@H]2c3cc(NC(=O)Nc4ccccc4)ccc3O[C@H]2[C@@H](CO)O1)NC1CCCC1
AC50 [1]: 6.1 µM (active)

CN(Cc1ccc(Cl)s1)C(=O)CCl
EC50 [6]: 27.6 µM (active)
CC50 [7]: 11.7 µM (active)
AC50 [2]: 50.5 µM (active)
EC50 (BJ [8]): > 150 µM (inconclusive)
EC50 (BJ [9]): 5.73 µM (active)
EC50 (BJ [10]): > 150 µM (inconclusive)
EC50 (Protein RecA): 8.93 µM (active)

O=C(CSc1nnnn1C1CCCCC1)Nc1cccc(NC(=O)c2ccco2)c1
IC50 (Protein skinhead-1): > 100 µM (inactive)

CN(CC(=O)Nc1nc2ccccc2s1)S(=O)(=O)c1ccc(Cl)cc1
IC50 (Protein skinhead-1): > 100 µM (inactive)

COc1ccccc1NC(=O)N[C@H]1C=C[C@@H](CC(=O)N[C@H](C)c2ccccc2)O[C@H]1CO
AC50 [3]: 4.72 µM (active)
AC50 [4]: 3.38 µM (active)
AC50 [5]: 11 µM (active)

COc1ccccc1CNC(=O)c1ccc2c(=O)n(CCCN3CCCC3=O)c(=S)[nH]c2c1
IC50 [11]: > 20 µM (inactive)

Cc1cc(N2CCN(C)CC2)nc2ccc(NC(=S)N3CCN(c4cccc(Cl)c4)CC3)cc12
IC50 [11]: > 20 µM (inactive)

Cc1ccc(Nc2nc(-c3cccs3)cs2)nc1
IC50 (Protein skinhead-1): 54.6 µM (inactive)

O=C(NCCCN1CCCC1)c1ccc2c(c1)N(Cc1ccccc1)CCS2
AC50 [12]: 22 nM (active)
IC50 [11]: > 20 µM (inactive)

CCSc1ncc(/C=N/Nc2ccccc2)n1C
IC50 (Protein skinhead-1): > 100 µM (inactive)

Oc1ccc(O)c(Cc2nc3ccccc3s2)c1
AC50 [2]: 33.1 µM (active)
EC50 (Protein RecA): > 380 µM (inactive)

CCn1ccnc1CN(C)Cc1nc(-c2ccc3c(c2)OCO3)no1
EC50 [13]: 12.5 µM (active)
EC50 (H4): 21.4 µM (active)
EC50 [14]: 6.38 µM (active)

Cc1cnc(C(=O)Nc2ccc(OC(F)(F)F)cc2)cn1
EC50 [13]: 17.5 µM (active)
EC50 (H4): 98.1 µM (active)
EC50 [14]: 13.9 µM (active)

O=C(/C=C/Nc1ccc(F)c(F)c1)c1cccs1
IC50 (Protein skinhead-1): 18.2 µM (active)

O=C(Nc1ccc(Cl)c(Cl)c1)Nc1ccccc1NS(=O)(=O)c1cccs1
AC50 [2]: 4.19 µM (active)
EC50 (Protein RecA): 29.1 µM (active)
AC50 [15]: 7.6 µM (active)
